# Where two headings read alike, the source gives them in different places.
# Tests used:
# CTX-M-15 = CTX-M-15 (Escherichia coli, UniProt Q9EXV5)
# OXA-1 = OXA-1 (Escherichia coli, UniProt P13661)
# OXA-11 = OXA-11 (Pseudomonas aeruginosa, UniProt Q06778)
# E. coli RGN238 [1] = assay: microbe, parasite or virus in culture; type: cell-based
# Method: Log phase bacterial suspensions were adjusted to a final density of 5×10^5 cfu/mL in cation-adjusted Mueller-Hinton broth (Becton-Dickinson) and added to each well (98 μL). Microplates were incubated for 16-20 h at 35° C. in ambient air. The MIC of the compounds was defined as the lowest concentration of said compounds that prevented bacterial growth as read by visual inspection.
# E. cloacae UFR51 = assay: MIC of ceftazidime (CAZ) at fixed concentration of compound (synergy), broth microdilution; type: cell-based; details: strain UFR51 (E. cloacae)
# Procedure, shortened: (§1)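 Log-phase bacteria were diluted to a final 5×10^5 cfu/mL in cation-adjusted Mueller-Hinton broth and incubated 16-20 h at 35° C in ambient air. MIC was taken as the lowest concentration preventing growth, judged visually.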
# E. coli UFR32 = assay: as above; type: cell-based; details: strain UFR32 (E. coli)
# Procedure, shortened: as §1
# E. coli 131119 = assay: as above; type: cell-based; details: strain 131119 (E. coli)
# Procedure, shortened: as §1
# E. cloacae UFR85 = assay: as above; type: cell-based; details: strain UFR85 (E. cloacae)
# Procedure, shortened: as §1
# K. pneumoniae UFR24 = assay: as above; type: cell-based; details: strain UFR24 (K. pneumoniae)
# Procedure, shortened: as §1
# E. coli RGN238 [2] = assay: as above; type: cell-based; details: strain RGN238 (E. coli)
# Procedure, shortened: as §1
# K. pneumoniae UFR68 = assay: as above; type: cell-based; details: strain UFR68 (K. pneumoniae)
# Procedure, shortened: as §1
# K. pneumoniae BAA-1898 = assay: as above; type: cell-based; details: strain BAA-1898 (K. pneumoniae)
# Procedure, shortened: as §1
# K. pneumoniae 200047 = assay: as above; type: cell-based; details: strain 200047 (K. pneumoniae)
# Procedure, shortened: as §1
# E. coli UFR39 = assay: as above; type: cell-based; details: strain UFR39 (E. coli)
# Procedure, shortened: as §1
# E. cloacae 260508 = assay: as above; type: cell-based; details: strain 260508 (E. cloacae)
# Procedure, shortened: as §1
# K. oxytoca UFR21 = assay: as above; type: cell-based; details: strain UFR21 (K. oxytoca)
# Procedure, shortened: as §1
# E. coli 190317 = assay: as above; type: cell-based; details: strain 190317 (E. coli)
# Procedure, shortened: as §1
# E. cloacae P99 = assay: as above; type: cell-based; details: strain P99 (E. cloacae)
# Procedure, shortened: as §1
# K. pneumoniae 160143 = assay: as above; type: cell-based; details: strain 160143 (K. pneumoniae)
# Procedure, shortened: as §1
# E. coli UFR41 = assay: as above; type: cell-based; details: strain UFR41 (E. coli)
# Procedure, shortened: as §1
# E. coli UFR74 = assay: as above; type: cell-based; details: strain UFR74 (E. coli)
# Procedure, shortened: as §1
# P. aeruginosa CIP107051 = assay: as above; type: cell-based; details: strain CIP107051 (P. aeruginosa)
# Procedure, shortened: as §1
# E. cloacae UFR70 = assay: as above; type: cell-based; details: strain UFR70 (E. cloacae)
# Procedure, shortened: as §1
# E. coli UFR61O = assay: as above; type: cell-based; details: strain UFR61O (E. coli)
# Procedure, shortened: as §1
# K. pneumoniae 6299 = assay: as above; type: cell-based; details: strain 6299 (K. pneumoniae)
# Procedure, shortened: as §1
# E. coli UFR18 = assay: as above; type: cell-based; details: strain UFR18 (E. coli)
# Procedure, shortened: as §1
# SHV-1 = SHV-1 (Klebsiella pneumoniae, UniProt P0AD64)
# CMY-37 = CMY-37 (Citrobacter freundii, UniProt P05193); details: read-out: IC50 β-lactamase CMY-37
# OXA-48 = OXA-48 (Klebsiella pneumoniae, UniProt Q6XEC0)
# AmpC (PAE) = AmpC (PAE) (Pseudomonas aeruginosa, UniProt P24735); assay: biochemical
# [3] = footnote *: MIC of ceftazidime with compound fixed at 8 μg/mL
# [4] = MIC of ceftazidime with compound fixed at 4 μg/mL
compound,measurement,setting,value
"O=C1N2CC(n3cncn3)=CC(C2)N1OS(=O)(=O)[O-].[Na+] (centres unmarked) [Example 5, sodium [7-oxo-3-(1,2,4-triazol-1-yl)-1,6-diazabicyclo[3.2.1]oct-3-en-6-yl]sulfate]",IC50,CTX-M-15,0.66 nM
same,IC50,OXA-1,49 nM
same,IC50,OXA-11,14 nM
same,MIC,"E. coli RGN238 [1]; Escherichia coli, RGN238, read-out: MIC compounds of the invention alone",2 µg/mL
same,MIC combination of CAZ and compound at 8 μg/mL,E. cloacae UFR51; [3],<0.25
same,MIC combination of CAZ and compound at 8 μg/mL,E. coli UFR32; [3],<0.25
same,MIC combination of CAZ and compound at 8 μg/mL,E. coli 131119; [3],<0.25
same,MIC combination of CAZ and compound at 8 μg/mL,E. cloacae UFR85; [3],<0.25
same,MIC combination of CAZ and compound at 8 μg/mL,K. pneumoniae UFR24; [3],<0.25
same,MIC combination of CAZ and compound at 8 μg/mL,E. coli RGN238 [2]; [3],<0.25
same,MIC combination of CAZ and compound at 8 μg/mL,K. pneumoniae UFR68; [3],<0.25
same,MIC combination of CAZ and compound at 8 μg/mL,K. pneumoniae BAA-1898; [3],<0.25
same,MIC combination of CAZ and compound at 8 μg/mL,K. pneumoniae 200047; [3],<0.25
same,MIC combination of CAZ and compound at 8 μg/mL,E. coli UFR39; [3],<0.25
same,MIC combination of CAZ and compound at 8 μg/mL,E. cloacae 260508; [3],<0.25
same,MIC combination of CAZ and compound at 8 μg/mL,K. oxytoca UFR21; [3],<0.25
same,MIC combination of CAZ and compound at 8 μg/mL,E. coli 190317; [3],<0.25
same,MIC combination of CAZ and compound at 8 μg/mL,E. cloacae P99; [3],<0.25
same,MIC combination of CAZ and compound at 8 μg/mL,K. pneumoniae 160143; [3],<0.25
same,MIC combination of CAZ and compound at 8 μg/mL,E. coli UFR41; [3],<0.25
same,MIC combination of CAZ and compound at 8 μg/mL,E. coli UFR74; [3],<0.25
same,MIC combination of CAZ and compound at 8 μg/mL,P. aeruginosa CIP107051; [3],4
same,MIC combination of CAZ and compound at 8 μg/mL,E. cloacae UFR70; [3],<0.25
same,MIC combination of CAZ and compound at 8 μg/mL,E. coli UFR61O; [3],<0.25
same,MIC combination of CAZ and compound at 8 μg/mL,K. pneumoniae 6299; [3],<0.25
same,MIC combination of CAZ and compound at 8 μg/mL,E. coli UFR18; [3],<0.25
same,IC50,SHV-1,4.4 nM
same,IC50,CMY-37,36 nM
same,IC50,OXA-48,0.45 nM
same,IC50,AmpC (PAE),140 nM
"O=C1N2CC(n3ccnn3)=CC(C2)N1OS(=O)(=O)[O-].[Na+] (centres unmarked) [Example 2, sodium [7-oxo-3-(triazol-1-yl)-1,6-diazabicyclo[3.2.1]oct-3-en-6-yl]sulfate]",IC50,"CTX-M-15; read-out: IC50 β-lactamase CTX-M-15, class (A), nitrocefin 200 μM, 30-min pre-incubation, enzyme 0.4 nM",0.67 nM
same,IC50,"OXA-1; read-out: IC50 β-lactamase OXA-1, class (D), nitrocefin 200 μM, 30-min pre-incubation, enzyme 0.2 nM",58 nM
same,IC50,"OXA-11; read-out: IC50 β-lactamase OXA-11, class (D), nitrocefin 200 μM, 30-min pre-incubation, enzyme 1.2 nM",40 nM
same,MIC compounds of the invention alone,"E. coli RGN238 [1]; strain RGN238: E. coli, OXA-1",2 µg/mL
same,MIC combination of CAZ and compounds of the invention at 4 μg/mL,E. cloacae UFR51; [4],<0.25
same,MIC combination of CAZ and compounds of the invention at 4 μg/mL,E. coli UFR32; [4],<0.25
same,MIC combination of CAZ and compounds of the invention at 4 μg/mL,E. coli 131119; [4],<0.25
same,MIC combination of CAZ and compounds of the invention at 4 μg/mL,E. cloacae UFR85; [4],<0.25
same,MIC combination of CAZ and compounds of the invention at 4 μg/mL,K. pneumoniae UFR24; [4],≤0.25
same,MIC combination of CAZ and compounds of the invention at 4 μg/mL,E. coli RGN238 [2]; [4],<0.25
same,MIC combination of CAZ and compounds of the invention at 4 μg/mL,K. pneumoniae UFR68; [4],<0.25
same,MIC combination of CAZ and compounds of the invention at 4 μg/mL,K. pneumoniae BAA-1898; [4],<0.25
same,MIC combination of CAZ and compounds of the invention at 4 μg/mL,K. pneumoniae 200047; [4],<0.25
same,MIC combination of CAZ and compounds of the invention at 4 μg/mL,E. coli UFR39; [4],<0.25
same,MIC combination of CAZ and compounds of the invention at 4 μg/mL,E. cloacae 260508; [4],<0.25
same,MIC combination of CAZ and compounds of the invention at 4 μg/mL,K. oxytoca UFR21; [4],<0.25
same,MIC combination of CAZ and compounds of the invention at 4 μg/mL,E. coli 190317; [4],<0.25
same,MIC combination of CAZ and compounds of the invention at 4 μg/mL,E. cloacae P99; [4],<0.25
same,MIC combination of CAZ and compounds of the invention at 4 μg/mL,K. pneumoniae 160143; [4],<0.25
same,MIC combination of CAZ and compounds of the invention at 4 μg/mL,E. coli UFR41; [4],<0.25
same,MIC combination of CAZ and compounds of the invention at 4 μg/mL,E. coli UFR74; [4],<0.25
same,MIC combination of CAZ and compounds of the invention at 4 μg/mL,P. aeruginosa CIP107051; [4],4
same,MIC combination of CAZ and compounds of the invention at 4 μg/mL,E. cloacae UFR70; [4],<0.25
same,MIC combination of CAZ and compounds of the invention at 4 μg/mL,E. coli UFR61O; [4],<0.25
same,MIC combination of CAZ and compounds of the invention at 4 μg/mL,K. pneumoniae 6299; [4],<0.25
same,MIC combination of CAZ and compounds of the invention at 4 μg/mL,E. coli UFR18; [4],<0.25
same,IC50,"SHV-1; read-out: IC50 β-lactamase SHV-1, class (A), nitrocefin 200 μM, 30-min pre-incubation, enzyme 0.075 nM",4 nM
same,IC50,"CMY-37; class (C), nitrocefin 200 μM, 30-min pre-incubation, enzyme 0.2 nM",31 nM
same,IC50,"OXA-48; read-out: IC50 β-lactamase OXA-48, class (D), nitrocefin 200 μM, 30-min pre-incubation, enzyme 0.3 nM",0.59 nM
